Laboratory results: patent US7740841B1, “Therapeutic method for reducing angiogenesis” (Sunnybrook Health Science Center, priority 2000, dated 2010)

Columns and labels:
SK-N-MC cells = assay: In vitro drug sensitivity, 3H-thymidine incorporation; format: cell-based, human; details: 100-400 ng/ml, 24 hours
Description: (§1) Cells and culture conditions: Neuroblastoma cell lines SK-N-MC, SK-N-AS were obtained from American Type Culture Collection (ATCC) and expanded as a monolayer culture by serial passage on tissue culture plates (Nunc, Denmark) in DMEM, 5% fetal bovine serum (Gibco, Grand Island, N.Y., USA). Human umbilical vein endothelial cells (HUVEC) (Clonetics, San Diego, Calif.) were expanded on 1% gelatin-coated tissue culture plates in MCDB131 culture medium (JRH Biosciences, Lenexa, Kans., USA) supplemented with 5 ng/ml bFGF (R&D, Minneapolis, Minn.), 10 units/ml heparin (Wyeth-Ayerst Canada), 10 ng/ml EGF (UBI, Lake Placid, N.Y.) and 10% fetal bovine serum.
In vitro determination of drug sensitivity: Three thousand cells in 200 μl growth media per well were plated in 96-well flat bottom tissue culture plates (Nunc, Denmark) and incubated at 37° C., 5% CO2 for 24 hours prior to initiation of treatment. The cells were then washed with PBS and treated with 1-500 ng/ml vinblastine sulphate (Calbiochem, La Jolla, Calif.) for 24 hours, in groups of eight wells per dose. […] Incorporated radioactivity was measured on Wallac 1205 BetaPlate Scintillation Counter (Wallac Oy, Finland) and proliferation was expressed as a percentage of ^3H-thymidine in treated cells vs. that in controls. […]

[1] = tested on: SK-N-AS human neuroblastoma xenografts; assay: Tumor perfusion by FITC-Dextran fluorescence; format: in vivo, CB-17 SCID mice; details: vinblastine 1 mg/m^2 i.p. and/or DC101 800 μg i.p. every three days, 10 days
Experimental: Relative tumor vascularity assessed by an FITC-Dextran perfusion assay: The method was designed to assess the relative functionality of the tumor vasculature. 2×10^6 SK-N-AS neuroblastoma cells were injected into the flanks of CB-17 SCID mice. Tumors were allowed to grow to approximately 0.75 cm^3 at which point tumor bearing mice were then treated with 1 mg/m^2 vinblastine i.p. every three days, 800 μg DC101 i.p. every three days, combination of the two agents or saline as a control. […] Fluorescence readings were obtained on a FL600 Fluorescence Plate Reader (Bio-tek Instruments Inc., Winooski, Vt., USA), from a standard curve created by serial dilution of the FITC-dextran used for injection. The ratio of tumor fluorescence:plasma fluorescence was assumed to be reflective of the degree of tumor perfusion.
Tumor perfusion by assessment of intravascular fluorescence: To further explore the possibility that tumor regression induced with treatment using DC101 and vinblastine was indeed due to the vascular injury, rather than a direct anti-tumor cell effect, we assessed tumor perfusion directly by using a FITC-Dextran fluorescence method. […]

[2] = tested on: bFGF induced vascularization; assay: In vivo Matrigel plug angiogenesis assay; parameters: species or system Balb/cJ mice; details: DC101 800 μg i.p. and/or vinblastine 1 mg/m^2 i.p. on day 4 and 7, sacrifice day 10
Experimental: In vivo angiogenesis assessment by the Matrigel plug assay (5,25): Matrigel (Collaborative Biomedical Products, Bedford, Mass.) stored at −20° C., was thawed at 4° C. overnight and mixed with 500 ng/ml bFGF. 0.5 ml of this mixture was then injected subcutaneously into the shaved flanks of twenty 6-8 week old female Balb/cJ mice (Jackson Labs, Bar Harbor, Me.). Five mice, used as negative controls, were injected with Matrigel alone. Three days later, treatment mice were randomized into four groups as follows: • Group I—saline i.p., • Group II—800 μg DC101 i.p. • Group III—1 mg/m^2 vinblastine i.p. • Group IV—combination therapy.
All 25 mice were treated on day 4 and 7 and sacrificed on day 10. Blood samples were collected into heparinized tubes by cardiac puncture, centrifuged immediately following their collection, plasma separated and protected from light at 4° C. […] The following day, the plugs were homogenized, centrifuged at 5000 rpm for 10 minutes and supernatant saved in the dark for analysis of fluorescence. Fluorescence readings were obtained on FL600 Fluorescence Plate Reader using a standard curve created by serial dilution of FITC-dextran used for injection. Angiogenic response was expressed as a ratio of Matrigel plug fluorescence:plasma fluorescence.
To address these questions, we repeated the same fluorescence measurement using an in vivo Matrigel plug angiogenesis assay. […]

[3] = mouse, in vivo; cited from earlier work
[4] = tested on: SK-N-MC neuroepithelioma or SK-N-AS neuroblastoma xenografts; assay: In vivo tumor growth assessment, subcutaneous xenografts; parameters: species or system CB-17 SCID mice; details: established ~0.75 cm^3 xenografts; DC101 800 μg i.p. every three days; low-dose vinblastine
Experimental: In vivo tumor growth assessment: SK-N-MC, cells were harvested using 1% Trypsin EDTA (GibcoBRL, Gaithesburg, Md.), and single cell suspension of 2×10^6 cells in 0.2 ml of growth media was injected subcutaneously into the flanks of 4-6 week old CB-17 SCID mice (Charles River, St-Constant, Quebec). Approximately 3 weeks later, most tumors had grown to ˜0.75 cm^3, and mice were randomized into groups of 5 animals. Two independent experiments were performed, each totaling 20 animals in 4 groups. The treatment was as follows:
Group I (Control)—0.4 ml of PBS (DC101 vehicle) i.p. every three days and 0.15 ml injectable saline (vinblastine vehicle) i.p. every three days.
Group II—0.4 ml of 2 mg/ml DC101 antibody (800 μg/mouse) (24) every three days and 0.15 ml of injectable saline i.p. every three days
Group III—vinblastine sulfate 0.75 mg/m^2 i.p. bolus at the start of therapy, followed by 1 mg/m^2/day via subcutaneous Alzet osmotic pumps (Alza Corp, Palo Alto, Calif.) for 3 weeks, followed by maintenance therapy with 0.15 ml of 0.067 mg/ml vinblastine sulfate (1.5 mg/m^2) i.p. every three days, and 0.4 ml of PBS i.p. every three days
Group IV—combination of DC101 and vinblastine at doses identical to the single agent groups. […]

SK-N-AS cells = assay: In vitro drug sensitivity, 3H-thymidine incorporation; format: cell-based, human; details: 100-400 ng/ml, 24 hours
Description: as §1
(§2) In vitro determination of drug sensitivity: Three thousand cells in 200 μl growth media per well were plated in 96-well flat bottom tissue culture plates (Nunc, Denmark) and incubated at 37° C., 5% CO2 for 24 hours prior to initiation of treatment. […] The cells were then pulsed for 6 hrs with 2 μCi/well of methyl-^3H-thymidine (Amersham Life Science, Buckinghamshire, England). The plates were frozen, thawed and the DNA harvested onto a filtermat using a Titertek Cell Harvester. Incorporated radioactivity was measured on Wallac 1205 BetaPlate Scintillation Counter (Wallac Oy, Finland) and proliferation was expressed as a percentage of ^3H-thymidine in treated cells vs. that in controls.
(§3) All three cell lines were grown in DMEM with […], but the HUVEC were grown on gelatinized plates and in the presence of additional growth factors (bFGF and EGF).

HUVEC = assay: as above; format: cell-based, human; details: 24 hours
Description: as §1, §2, §3

[5] = mouse, in vivo
Experimental: The body weight, tumor size and general clinical status of the animals were recorded every 2-3 days. Perpendicular tumor diameters were measured using a vernier scale caliper and tumor volume was estimated using the formula for ellipsoid: (width^2×length)/2. Growth curves were statistically analyzed using repeated measures ANOVA. […] As required by institutional guidelines, the mice were sacrificed when tumor size reached 1.5 cm^3 or 7.5-10% of their body weight.
To evaluate this aspect of DC101/vinblastine combination therapy, the health status of the mice was monitored. Weight was plotted at regular intervals and considered a surrogate for evaluation of systemic well being, anorexia, or failure to thrive.

[6] = tested on: neuroblastoma xenograft tumors; assay: Histopathologic analysis of tumors (H/E and TUNEL); format: in vivo, CB-17 SCID mice; details: excised tumors; combination group at 7.5 weeks of treatment
Description: Histology: All tumors were excised, fixed in 10% (v/v) formalin and processed for immunohistochemical analysis. To obtain adequate tissue for the combination treatment group, two mice were sacrificed at 7.5 weeks of treatment. Paraffin blocks were cut to 5 μm sections and stained with haematoxylin/eosin for morphology evaluation and with Apoptosis Detection System (Promega, Madison, Wis.) for assessment of programmed cell death.
Histopathologic analysis: To further elucidate the mechanisms involved in the tumor regression following treatment with vinblastine, DC101, or the combined therapy, tissue histopathology assessment was undertaken. Cancer cells with high nuclear to cytoplasmic ratio form cuffs around central vessels, and apoptotic cells characterized by pyknotic nuclei and cytoplasmic blebbing, are only evident as a thin rim at the periphery of the cuffs. The nuclei of these cells stain strongly for terminal deoxynucleotidyl transferase (TUNEL) reactivity, as expected for cells undergoing apoptosis. […] There is a close similarity of the appearance of H/E and TUNEL stain. […] Rather than a typical single layer of flattened endothelial cells surrounding the vascular lumen in untreated group, we observed edema, and detachment from surrounding basement membrane and leading to complete vascular wall disintegration and tumor cell death.

CC[C@]1(O)C[C@@H]2CN(CCc3c([nH]c4ccccc34)[C@@](C(=O)OC)(c3cc4c(cc3OC)N(C)[C@H]3[C@@](O)(C(=O)OC)[C@H](OC(C)=O)[C@]5(CC)C=CCN6CC[C@]43[C@@H]65)C2)C1 [vinblastine, vinblastine sulphate]
inhibition of proliferation (3H-thymidine incorporation) (SK-N-MC cells): strongly inhibited | decrease in tumor perfusion (tumor:plasma fluorescence) [1]: 41% | bFGF induced vascularization of Matrigel plug (plug:plasma fluorescence) [2]: 62.5 % of the positive control group | MTD in mice relative to MTD in humans [3]: 4-5 times | effect on tumor growth [4]: significant, albeit not sustained, regression of tumor growth | inhibition of proliferation (3H-thymidine incorporation) (SK-N-AS cells): strongly inhibited | inhibition of proliferation (3H-thymidine incorporation) (HUVEC; 0.78 ng/ml): retained almost the same degree of inhibitory activity | inhibition of proliferation (3H-thymidine incorporation) (HUVEC; 100-400 ng/ml): strongly inhibited, especially HUVEC | body weight / toxicity profile [5]: some weight gain retardation, but the differences never became significantly different from controls | tumor histology (H/E, TUNEL apoptosis) [6]: increase in the width of the apoptotic rims
